Numbered stars: 1 amine (or outer) side, 2 acyl side, 3 side chain; on linkers, the order of the positions; unused ones are H or OH. Bridge positions count the residues as written; N and C are the ends. Square brackets hold non-standard residues; d marks the D form. Peptide text beside a SMILES is read from it. I, II: the chains in the order shown. Actinocin(9to1) = Cc1c2oc3c(C)ccc(C(=O)[*:1])c3nc-2c(C(=O)[*:2])c(N)c1=O; NMeV = CN[C@H](C(=O)O)C(C)C; Sar = CNCC(=O)O
What was measured:
[1] = system: HSC-3 cells (OSCC, tongue); test: MTT cytotoxicity assay, HSC-3; assay type: cell-based, human; details: for CC50: Homo sapiens, HSC-3, OSCC, 48 h, MTT, average of three determinations
Description: (§2) The viable cell number was determined in triplicate by the MTT method, following the approach adopted in previous studies ([Nagai et al., 2018]; [Shi et al., 2018] ). Briefly, the cells were incubated for 2 h with 0.2 mg/mL of MTT, and the formed formazan was dissolved with 0.1 mL of DMSO to determine the relative viable cell number at 560 nm.
(§3) Cells were inoculated at 2×10^3 cells/0.1 ml in a 96-microwell plate. […] Cells were incubated further for 48 h and the relative viable cell number was then determined by the MTT method and expressed as the absorbance of the cell lysate at 560 nm, using a microplate reader (Infinite F50R; TECAN, Männedorf, Switzerland) [49, 50]. Control cells were treated with the same amounts of DMSO and the cell damage induced by DMSO was subtracted from that induced by test agents. The concentration of compound that reduced the viable cell number by 50% (CC50) was determined from the dose–response curve and the mean value of CC50 for each cell type was calculated from triplicate assays.
(§4) Human oral squamous cell carcinoma (OSCC) cell lines [Ca9-22 (derived from gingival tissue); and HSC-2, HSC-3, HSC-4 (derived from tongue)] were purchased from Riken Cell Bank (Tsukuba, Japan). All of these cells were cultured at 37°C in DMEM supplemented with 10% heat-inactivated fetal bovine serum, 100 units/ml, penicillin G and 100 µg/ml streptomycin sulfate under a humidified 5% CO2 atmosphere. Cell morphology was checked periodically under a light microscope (EVOS FL; Thermo Fisher Scientific, Waltham, MA, USA).

[2] = MTT cytotoxicity assay, HGF; assay type: cell-based, human; details: human, human gingival fibroblasts (HGF), normal oral cells, average of three determinations
Description: as §2, §3, §4

[3] = MTT cytotoxicity assay, HPLF; assay type: cell-based, human; details: female, human, normal oral cells, average of three determinations
Description: as §2, §3
(§5) All of these cells were cultured at 37°C in DMEM supplemented with 10% heat-inactivated fetal bovine serum, 100 units/ml, penicillin G and 100 µg/ml streptomycin sulfate under a humidified 5% CO2 atmosphere.

[4] = system: HSC-2 cells (OSCC, tongue); test: MTT cytotoxicity assay, HSC-2; details: Homo sapiens, HSC-2, 48 h, read-out: CC50 HSC-2
Description: as §2, §3, §4

[5] = MTT cytotoxicity assay, HPC; assay type: cell-based, human; details: female, human, human pulp cells (HPC), normal oral cells, average of three determinations
Description: as §2, §3, §5

[6] = MTT cytotoxicity, three normal oral cell types together (mean); assay type: cell-based, human; details: female, human; mean of HGF, HPLF, HPC; read-out: CC50 normal oral cells mean (D)
Source text: (§1) Estimation of CC50 values. […] The mean pCC50 values for normal cells and tumor cell lines were defined as N and T, respectively.

[7] = system: human OSCC cell lines (Ca9-22, HSC-2, HSC-3, HSC-4); test: MTT cytotoxicity, four OSCC cell lines together (mean, TS, PSE, type of growth inhibition); assay type: cell-based; details: for CC50: Homo sapiens, mean of Ca9-22, HSC-2, HSC-3, HSC-4, read-out: CC50 OSCC mean (B); for type of growth inhibition on the OSCC cell lines: from dose-response curves, Figure 4, cytostatic = without complete cytotoxicity, cytotoxic = complete cell death; for TS (D/B) tumor-selectivity index: mean CC50 normal cells / mean CC50 OSCC cell lines
Description: TS was calculated using the following equation: TS=mean CC50 against three normal oral cell types/mean CC50 against four OSCC cell lines (HGF, HPLF, HPC vs. Ca9-22, HSC-2, HSC-3, HSC-4). Since both Ca9-22 and HGF cells were derived from the gingival tissue, the relative sensitivity of these cells was also compared (as: CC50 against HGF/ CC50 against Ca9-22).
PSE was calculated by the following equation: PSE=mean CC50 against three normal oral cell types/(CC50 against four OSCC cell lines)2 × 100 (HGF, HPLF, HPC vs. Ca9-22, HSC-2, HSC-3, HSC-4); and as CC50 against HGF/(CC50 against Ca9-22)2 × 100 using the pair of cell types from the same tissue (gingiva) (see Table 1).
as §1

[8] = system: Ca9-22 cells (OSCC, gingival tissue); test: MTT cytotoxicity assay, Ca9-22; assay type: cell-based, human; details: for TS (C/A) tumor-selectivity index: CC50 HGF / CC50 Ca9-22 (both gingival); for PSE (C/A^2)x100 potency-selectivity expression: HGF vs Ca9-22 (both gingival); for CC50: Homo sapiens, Ca9-22, OSCC, 48 h, MTT, average of three determinations
Description: as §2, §3, §4

[9] = system: HSC-4 cells (OSCC, tongue); test: MTT cytotoxicity assay, HSC-4; assay type: cell-based, human; details: Homo sapiens, HSC-4, 48 h, average of three determinations
Description: as §2, §3, §4

HSC-2 cells = test: Cell-cycle analysis (propidium iodide, cell sorting); assay type: cell-based, human; details: HSC-2, 24 h, 1 μM; control 1.9 %
Description: Cell-cycle analysis was performed following the process described in the literature ([Kantoh et al., 2010]; [Nagai et al., 2018]; [Shi et al., 2018]), details of which are presented in a supplementary file. Briefly, cells (approximately 10^6 in number) were fixed with paraformaldehyde in PBS(−) and treated with RNase A. After staining with propidium iodide in the presence of 0.01% Nonidet-40 to prevent cell aggregation, the cells were filtered through Falcon cell strainers and then subjected to cell sorting, analyzed with Cell Sorter Software (version 2.1.2) (SONY Imaging Products and Solution Inc., Kanagawa, Japan).
HSC-2 cells were incubated for 24 h with actinomycin D (Act.D) (positive control of apoptosis induction) or MS4, 7, or 8, or without treatment (control), and subjected to cell cycle analysis. […] D (1 μM) (p < 0.05) from 1.9 % to 12.5%. […] The cell cycle analysis was performed only with HSC-2 cells; therefore, experiments with other OSCC cell lines should be conducted to support the generalization of our findings.
Treated and untreated cells (approximately 10^6 cells) were harvested, fixed with 1% paraformaldehyde in PBS without calcium and magnesium ions [PBS(−)]. Fixed cells were then washed twice with PBS(−) and treated for 30 min with 400 μl of 0.2 mg/ml RNase A (preheated for 10 min at 100 °C to inactivate DNase) to degrade RNA. Cells were then washed twice with PBS(−) and stained for 15 min with 0.01% propidium iodide (PI) in the presence of 0.01% NP-40 in PBS(−) to prevent cell aggregation. After filtering through Falcon® cell strainers ([…]) (Corning, NY, USA) to remove aggregated cells, PI-stained cells were subjected to cell sorting (SH800 Series; SONY Imaging Products and Solutions Inc., Kanagawa, Japan). Cell-cycle analysis was performed with Cell Sorter Software version 2.1.2. (SONY Imaging Products and Solution Inc.).

Row | SMILES | CC50 [1] [µM] | CC50 at 48 h [2] [µM] | CC50 at 48 h [3] [µM] | CC50 [4] [µM] | CC50 at 48 h [5] [µM] | CC50 at 48 h [6] [µM] | CC50 [7] [µM] | type of growth inhibition on the OSCC cell lines [7] | TS (D/B) tumor-selectivity index [7] | TS (C/A) tumor-selectivity index [8] | PSE (C/A^2)x100 potency-selectivity expression [8] | CC50 [8] [µM] | CC50 [9] [µM] | subG1 cell population (HSC-2 cells) [%] | increase of cytotoxicity against HSC-3 compared to MS4 ([1]; relative to unsubstituted phenyl derivative MS4)
1 | Cc1ccc(C(=O)/C=C/c2cn(-c3ccc(S(N)(=O)=O)cc3)nc2-c2ccccc2)cc1 [MS5, (E)-4-(4-(3-Oxo-3-(p-tolyl)prop-1-en-1-yl)-3-phenyl-1H-pyrazol-1-yl)benzenesulfonamide] | 34.7 | 145 | > 400 | 0.9 | 30.3 | > 192 | 10.1 | cytostatic effects | >19.1 | 88.8 | 5426 | 1.6 | 3.1 | – | –
2 | COc1cccc2c1C(=O)c1c(O)c3c(c(O)c1C2=O)C[C@@](O)(C(=O)CO)C[C@@H]3O[C@H]1C[C@H](N)[C@H](O)[C@H](C)O1 [DXR, doxorubicin, reference compound] | 0.29 | > 10 | > 10 | 0.12 | 9.2 | > 9.7 | 0.18 | cytotoxic effects | >54.9 | >45.5 | – | 0.22 | 0.09 | – | –
3 | Cc1c2oc3c(C)ccc(C(=O)N[C@@H]4C(=O)N[C@H](C(C)C)C(=O)N5CCC[C@H]5C(=O)N(C)CC(=O)N(C)[C@@H](C(C)C)C(=O)O[C@@H]4C)c3nc-2c(C(=O)N[C@@H]2C(=O)N[C@H](C(C)C)C(=O)N3CCC[C@H]3C(=O)N(C)CC(=O)N(C)[C@@H](C(C)C)C(=O)O[C@@H]2C)c(N)c1=O [Act.D, actinomycin D, reference compound] (I: T[dV]P[Sar][NMeV] / II: T[dV]P[Sar][NMeV]; ester I:1-I:C, II:1-II:C; linker I:N-II:N via Actinocin(9to1)) | – | – | – | – | – | – | – | – | – | – | – | – | – | 12.5 | –
4 | NS(=O)(=O)c1ccc(-n2cc(/C=C/C(=O)c3cccs3)c(-c3ccccc3)n2)cc1 [MS10, (E)-4-(4-(3-Oxo-3-(thiophen-2-yl)prop-1-en-1-yl)-3-phenyl-1H-pyrazol-1-yl)benzenesulfonamide] | 4.63 | 16.6 | 121 | 0.38 | 6.7 | 48 | 1.86 | mixed effects | 25.9 | 26.4 | 4191 | 0.63 | 1.78 | – | –
5 | O=c1[nH]cc(F)c(=O)[nH]1 [Compound 5-FU, 5-fluorouracil, reference compound] | – | – | – | – | – | – | – | cytostatic effects | > 28.6 | > 30.3 | – | – | – | – | –
6 | C/C(=N\Nc1ccc(S(N)(=O)=O)cc1)c1ccccc1 [MS1, (E)-4-(2-(1-phenylethylidene)hydrazinyl)benzenesulfonamide] | 53.7 | 50.7 | 246 | 14.3 | 51 | 116 | 25.9 | cytostatic effects | 4.5 | 2.5 | – | 20 | 15.7 | – | –
7 | COc1ccc(C(=O)/C=C/c2cn(-c3ccc(S(N)(=O)=O)cc3)nc2-c2ccccc2)cc1OC [MS9, (E)-4-(4-(3-(3,4-Dimethoxyphenyl)-3-oxoprop-1-en-1-yl)-3-phenyl-1H-pyrazol-1-yl)benzenesulfonamide] | 35 | > 400 | > 400 | 50.3 | > 400 | > 400 | 44.6 | mixed effects | >9.0 | >40.1 | – | 10 | 83 | – | –
8 | COc1ccc(C(=O)/C=C/c2cn(-c3ccc(S(N)(=O)=O)cc3)nc2-c2ccccc2)cc1 [MS6, (E)-4-(4-(3-(4-Methoxyphenyl)-3-oxoprop-1-en-1-yl)-3-phenyl-1H-pyrazol-1-yl)benzenesulfonamide] | 3.6 | 209 | 99.7 | 4.1 | 51.9 | 120 | 3.5 | cytotoxic effects | 33.9 | 66.5 | 2115 | 3.1 | 3.3 | – | 1.5–2 times
9 | NS(=O)(=O)c1ccc(-n2cc(C=O)c(-c3ccccc3)n2)cc1 [MS3, 4-(4-formyl-3-phenyl-1H-pyrazol-1-yl) benzenesulfonamide] | 51.7 | 253 | 217 | 64 | 221 | 230 | 48.6 | cytotoxic effects | 4.7 | 7.8 | – | 32.3 | 46.3 | – | –
10 | CN(C)C=NS(=O)(=O)c1ccc(-n2cc(C=O)c(-c3ccccc3)n2)cc1 [MS2] | 74.3 | 245 | 262 | 41.3 | 214 | 241 | 53.3 | cytotoxic effects | 4.5 | 7.1 | – | 34.3 | 63 | – | –
